Results as given in US20140163044A1, “Compound Chemical Medicine Acting on Respiratory Disease, Preparation Process and Use Thereof” (HUNAN JIUDIAN PHARMACEUTICAL CO., LTD., priority 2011, published 2014).

Key:
[1] = system: guinea pigs; experiment: Antitussive effect in guinea pigs (induced cough 1 h or 4 h after oral administration); type: in vivo; conditions: for Effect on latent period of cough and cough times (in words): all dose groups; for Cough times before administration (in 5 min) / Latent period of cough / cough count: oral; for Cough times before administration (in 5 min): baseline before administration
Excerpt: The pharmacodynamic test for the pharmaceutical composition of the present invention: • 1. Studies on the Antitussive Effect
Medicines used in the test:
Test medicine: self-made tablets of the pharmaceutical composition comprising levodropropizine and carbocisteine by the inventors
Positive control medicine: levodropropizine tablets and carbocisteine tablets
150 guinea pigs (half male and half female) with a body mass of 300±25 g are taken and evenly divided into 15 groups, with 10 in each group. The administration group for the tablet of the present invention is divided into high dose group, medium dose group and low dose group, and the tablets are orally administered respectively; the administration groups for the positive control medicine levodropropizine is also divided into high dose group, medium dose group and low dose group. Each dose group is divided into two groups, respectively the group inducing cough at the first hour or the fourth hour after administration.

[2] = system: outpatients or inpatients with cough; experiment: Trials for observing the clinical effect of the tablet in patients with cough; type: in vivo; conditions: 100 cases per group, oral, one tablet 3 times a day, 5-day course; for Efficacy: Ineffective: cough not improved or aggravated; for Efficacy: Improved: cough reduced 3 to 2 points or 2 to 1 points; for Efficacy: Effective: cough reduced to 1 point from 3 points; for Efficacy: Clinically controlled: symptoms disappeared completely
Description: Trials for observing the clinical effect of the tablet of the present invention was conducted in the People's Hospital of Yongshun County, Hunan Province.
300 outpatients or inpatients with cough caused by acute upper respiratory tract infection, acute tracheitis and bronchitis, community-acquired pneumonia, and acute exacerbation of chronic bronchitis were randomly divided into a treatment group […], 100 patients for each group. Medicines were administered following the double-blind double-dummy positive medicine parallel control method. The tablets of the present invention, the control medicine levodropropizine tablets or carbocisteine tablets were taken by each group, respectively. Each group orally takes the tablets 3 times a day, one tablet (including analog tablet) each time, for a 5-day course of treatment. Other antitussive or expectorant medicine was stopped during the administration. The patients' conventional indicators such as blood pressure, pulse rate, body temperature, respiration, etc.; symptoms of cough; chest x-ray; blood and urine routine tests; liver and kidney functions; adverse reaction records and electrocardiogram were recorded.
Criteria for evaluating the efficacy are as follows: clinically controlled: symptoms disappeared completely; effective: symptoms of cough reduced to 1 point from 3 points; improved: symptoms of cough reduced to 2 points from 3 points or reduced to 1 points from 2 points; ineffective: symptoms of cough were not improved or aggravated.

[3] = 60 mg/kg, four hours after administration
[4] = 60 mg/kg, one hour after administration
[5] = 30 mg/kg, four hours after administration
[6] = 30 mg/kg, one hour after administration
[7] = 120 mg/kg, four hours after administration
[8] = 120 mg/kg, one hour after administration

SMILES	Effect on latent period of cough and cough times (in words) [1]	Cough times before administration (in 5 min) ([1]; 60 mg/kg group, 1 h group)	Cough times before administration (in 5 min) ([1]; 60 mg/kg group, 4 h group)	Latent period of cough [1, 3]	cough count [1, 3]	Latent period of cough [1, 4]	cough count [1, 4]	Effective rate [2]	Efficacy: Ineffective [2]	Efficacy: Improved [2]	Efficacy: Effective [2]	Efficacy: Clinically controlled [2]	also measured
N[C@@H](CSCC(=O)O)C(=O)O [Carbocisteine tablet, carbocisteine]	no obviously effect on prolonging the latent period of cough and reducing the cough times	25.24 ± 4.53 in 5 min	26.04 ± 4.37 in 5 min	32.56 ± 5.17 s	20 ± 4.24	31.28 ± 6.42 s	21.1 ± 3.98	86%	14 cases	40 cases	18 cases	28 cases	–
OC[C@@H](O)CN1CCN(c2ccccc2)CC1 [Levodropropizine tablet, levodropropizine]	effects of prolonging latent period of cough and reducing cough times	25.41 ± 5.26 in 5 min	25.89 ± 4.06 in 5 min	40.27 ± 5.29 s	17.2 ± 3.45	42.38 ± 5.98 s	17.6 ± 3.97	92%	8 cases	17 cases	15 cases	60 cases	Cough times before administration (in 5 min) ([1]; 30 mg/kg group, 1 h group): 25.14 ± 4.37 in 5 min; Cough times before administration (in 5 min) ([1]; 30 mg/kg group, 4 h group): 25.74 ± 3.71 in 5 min; Latent period of cough [1, 5]: 36.34 ± 4.68 s; cough count [1, 5]: 19.4 ± 5.03; Latent period of cough [1, 6]: 38.16 ± 5.88 s; cough count [1, 6]: 19.1 ± 4.15; Cough times before administration (in 5 min) ([1]; 120 mg/kg group, 1 h group): 25.18 ± 5.31 in 5 min; Cough times before administration (in 5 min) ([1]; 120 mg/kg group, 4 h group): 26.27 ± 3.98 in 5 min; Latent period of cough [1, 7]: 42.18 ± 3.18 s; cough count [1, 7]: 15.1 ± 3.97; Latent period of cough [1, 8]: 49.57 ± 6.87 s; cough count [1, 8]: 14.2 ± 4.25
